# Data published in US10308682B2, “Inhibition of tumor growth with aggregates of small molecules” (BRANDEIS UNIVERSITY, priority 2013, dated 2019).
# Experiments:
# MES-SA = test: Cell viability assay (MTT), MES-SA; format: cell-based
# Procedure: (§1) Cells in exponential growth phase were seeded in a 96 well plate at a concentration of 50,000 cell/well. The cells were allowed to attach to the wells for 24 h at 37° C., 5% CO2, then the culture medium was removed and 100 μL new culture medium containing 1 at gradient concentrations was placed into each well. After culturing at 37° C., 5% CO2 for desired time, each well was added by 10 μL of 5 mg/mL MTT 43-(4,5-Dimethylthiazol-2-yl)-2,5-diphenyltetrazolium bromide), and the plated cells were incubate at dark for 4 h. 100 μL 10% SDS with 0.01 M HCl was added to each well to stop the reduction reaction and to dissolve the purple. After incubation of the cells at 37° C. for overnight, the viability is measured. Data represent the mean±standard deviation of three independent experiments.
# (§2) The estimation of the threshold concentration of aggregation (320-340 μM) for 1 allows us to examine the cytotoxicity of 1 in monomer and molecular aggregate forms. We first tested the cytotoxicity of 1 towards HeLa cells, the most widely studied cancer cell line, below and above the threshold concentration.
# U87MG = test: Cell viability assay (MTT), U87MG; format: cell-based
# Procedure: as §1, §2
# T98G cells = test: Tubulin staining (tubulin tracker), T98G cells; format: cell-based; conditions: 400 μM, 24 h
# Capan-2 = test: Cell viability assay (MTT), Capan-2; format: cell-based
# Procedure: as §1, §2
# [1] = Cell viability assay (MTT), PC12 neuronal cell line; format: cell-based; conditions: rat, PC12 cells; 400 and 500 μM, 7 days
# Procedure: (§3) FIG. 10 depicts the long term cytotoxicity of 1 on PC12 cells. Related to FIG. 2. (a) MTT viability test of cell incubated with gradient concentration of 1 for up to 7 days without changing medium. Data are presented as mean±SD of three independent experiments. (b) Intracellular concentration of 1 in PC12 cells treated with 1 for 12 h at 37° C. measured by LC-MS (left bar=400 μM; right bar=300 μM). (c) Cells were subcultured and re-seeded with new medium containing the same concentration of 1 (0 for control group and 400 μM for test group) every 4 days. Data are presented as mean±SD of three independent experiments.
# as §1, §2
# PC12 = test: as above; format: cell-based
# Procedure: as §3, §1, §2
# PC12 cells = test: Tubulin staining (tubulin tracker), PC12 cells; format: cell-based; conditions: 400 μM, 24 h
# HepG2 = test: Cell viability assay (MTT), HepG2; format: cell-based
# Procedure: as §1, §2
# HeLa cells [2] = test: Degradation of 1 in HeLa cells (LC-MS); format: in vitro ADME; conditions: 12 h at 37° C.
# Procedure: FIG. 17 depicts the degradation of 1 in HeLa cells. HeLa cells were lysed after incubation with 1 at different concentrations for 12 h at 37° C. The fragmental residue of 1 detected and quantified by LC-MS was (S)-2-(2-(naphthalen-2-yl) acetamido)-3-phenylpropanoic acid.
# HeLa cells [3] = test: Flow cytometry cell-cycle analysis of HeLa cells; format: cell-based; conditions: 400 μM, 24 h
# Procedure: (§4) FIG. 3 depicts the response of cancer cells toward molecular aggregates of 1. (a) Intracellular concentration of 1 in HeLa cells treated with 1 for 12 h at different temperatures measure by LC-MS (left bar=37° C.; right bar=4° C.). (b) Confocal images of FITC annexin V and PI stained HeLa cells without incubation with 1 (live cells), HeLa cells treated with 400 μM of 1 for 36 h, and necrotic HeLa cells (induced by DMSO). Scale bar=20 μm. (c) Fluorescence emission of 7-AAD and 1 in cell lysate (15,000 cell/mL) at λex=488 nm. (d) Cell cycle analysis, by flow cytometry, of HeLa cells treated with 0, 300 or 400 μM of 1 for 24 h. Depletion of G2/M phase occurs in cells treated with 400 μM of 1. (e) Cell migration assay of HeLa cells treated with 0, 300, 400 or 500 μM of 1. The gaps were created on the HeLa cells of 100% confluence in 24 well plates, and measured after incubation for 18 h.
# Because apoptosis associates with cell cycle, we examined the effect of the aggregates of 1 on the cell cycle. […] The cell-cycle distribution of the HeLa cells incubated with 400 μM of 1 indicates significant decrease of the peaks of S phase and G2/M phase. […] The slight right shift of the whole spectra results from the overlapping of emission of 7-AAD and 1 (FIG. 3c). But such shift barely hampers the distribution of cell-cycle of the spectra. The aggregates of 1 also delay the migration of the HeLa cells.
# HeLa cells [4] = test: Intracellular concentration of 1 in HeLa cells by LC-MS; format: cell-based; conditions: incubated with 300 μM and 400 μM for 24 h
# Procedure: as §4, with “(e) Cell migration assay of HeLa cells treated with 0, 300, 400 or 500 μM of 1.” left out
# The cytotoxicity of the molecular aggregates of 1 toward the cancer cells in cell assays and on animal model warrants further examination on the mechanism of the cell death. […] We measured the intracellular concentrations of 1 in the lysate of the HeLa cells incubated with 300 μM and 400 μM of 1 for 24 h (FIG. 3a) at 37° C. or 4° C. Based on the amount of 1, measured by liquid chromatography-mass spectroscopy (LC-MS) and the estimated total cell volume, the concentration of 1 inside the cells is about 150% of the concentration of 1 used for the incubation at 37° C. […]
smiles,measurement,setting,value
O=C(Cc1ccc2ccccc2c1)N[C@@H](Cc1ccccc1)C(=O)N[C@@H](Cc1ccccc1)C(=O)O [Compound 1],cytotoxicity towards MES-SA,MES-SA,decreases of cell viabilities only observed at 400 and 500 μM
same,cytotoxicity towards U87MG,U87MG,decreases of cell viabilities only observed at 400 and 500 μM
same,microtubule morphology,T98G cells,disrupted microtubule network
same,cytotoxicity towards Capan-2,Capan-2,decreases of cell viabilities only observed at 400 and 500 μM
same,viability at 7 days,[1],> 60%
same,"viability of PC12 cells, constant supply of 1","PC12; 400 μM, after 7 days, re-seeded with new medium every 4 days",significant loss of cell viability
same,toxicity towards PC12,PC12; 400 and 500 μM,little toxicity
same,microtubule morphology,PC12 cells,intact microtubule networks
same,cytotoxicity towards HepG2,HepG2,decreases of cell viabilities only observed at 400 and 500 μM
same,degradation of 1,HeLa cells [2],rather fast
same,cell-cycle distribution,HeLa cells [3],arrest the HeLa cells at the G1/G0 phase
same,concentration of 1 inside the cells,HeLa cells [4]; 4° C.,about 30 % of the incubating concentration
same,concentration of 1 inside the cells,HeLa cells [4]; 37° C.,about 150 % of the concentration of 1 used for the incubation
